Where a name gives a salt, the structure may show the parent alone.

The record followed here is patent US5385842A, “Anthraquinones as inhibitors of sulfide production from sulfate-reducing bacteria” (E. I. Du Pont de Nemours and Company, priority 1993, dated 1995).

For one experiment, the system named is Desulfovibrio desulfuricans G100A. The experiment is described as follows: microbe, parasite or virus in culture. Type of experiment: cell-based. To be noted: 10 ppm.
With “1-Amino-4[4-[[4-chloro-6-[2,3 or 4-sulfophenyl]-amino]-1,3,5-triazin-2-yl]amino]-3-sulfophenyl]-amino]-9,10-dihyro-9,10-dioxo-2-anthracenesulfonic acid [Reactive blue 2]”, the “% Inhib. (inhibition of sulfide production)” value came to 17.5%.

As for “1,1'-Iminobis[4-amino]9,10-anthracenedione, sulfonated [Acid black 48]”, the “% Inhib. (inhibition of sulfide production)” value is listed as 13.8%.

Staying with this experiment, now noted: Desulfovibrio desulfuricans, G100A, read-out: % Inhib. (inhibition of sulfide production).
As for `O=C1c2cccc(S(=O)(=O)O)c2C(=O)c2cccc(S(=O)(=O)O)c21` [Anthraquinone-1,5-disulfonic acid di Na salt hydrate], the inhibition at 10 ppm was found to be 17.5%.

Consider `Nc1ccc(NC(=O)c2ccccc2)c2c1C(=O)c1ccccc1C2=O` [1-Amino-4-benzamidoanthraquinone, N-(4-Amino-9,10-dihydro-9,10-dioxo-1-anthracenyl)-benzamide], for which the inhibition at 30 ppm was found to be 0%.

`CNc1ccc(NCCO)c2c1C(=O)c1ccccc1C2=O` [Disperse blue 3, 1-(2-Hydroxyethyl)amino-4-methylaminoanthraquinone]: the inhibition at 30 ppm came out at 6.4%.

Turning to `O=C1c2cccc(OCc3ccccc3)c2C(=O)c2c(OCc3ccccc3)cccc21` [1,8-Dibenzyloxyanthraquinone, 1,8-Bis(phenylmethoxy)-9,10-anthracenedione], the inhibition at 30 ppm stood at 4.5%.

On to `Nc1c(S(=O)(=O)O)cc(Nc2cccc(S(=O)(=O)CCOS(=O)(=O)O)c2)c2c1C(=O)c1ccccc1C2=O` [Remazol Brilliant blue R, 1-Amino-9,10-dihydro-9,10-dioxo-4-[[3[[2-(sulfoxy)-ethyl]sulfonyl]phenyl]amino]-2-anthracenesulfonic acid, disodium salt], for which the inhibition at 10 ppm is 12.4%.

Regarding `Cc1cc(C)c(S(=O)(=O)O)c(C)c1Nc1ccc(Nc2c(C)cc(C)c(S(=O)(=O)O)c2C)c2c1C(=O)c1ccccc1C2=O` [Acid blue 80, 3,3'-[(9,10-Dihydro-9,10-dioxo-1,4-anthracenediyl)adiimino]bis[2,4,6-trimethylbenzenesulfonicacid], di Na salt], the inhibition at 10 ppm was found to be 0%.

Regarding `O=C1c2ccccc2C(=O)c2cc(CO)ccc21` [2-(Hydroxymethyl)anthraquinone], the inhibition at 30 ppm was 87%.

Turning to `O=C(O)c1ccc2c(c1)C(=O)c1ccccc1C2=O` [Anthraquinone-2-carboxylic acid], the inhibition at 10 µg/mL turned out to be 22.6%.

For `O=C(Nc1cccc2c1C(=O)c1cccc(Cl)c1C2=O)c1ccccc1` [1-Benzamido-5-chloroanthraquinone, N-(5-Chloro-9,10-dihydro-9,10-dioxo-1-anthracenyl)-benzamide], the inhibition at 30 ppm is 10.4%.

Consider `O=C1c2c(Cl)ccc(Cl)c2C(=O)c2c(Cl)ccc(Cl)c21` [1,4,5,8-Tetrachloroanthraquinone], for which the inhibition at 30 ppm was determined as 50.6%.

For the compound `Nc1c(O)c(S(=O)(=O)O)c(O)c2c1C(=O)c1ccccc1C2=O` [Nuclear fast red, 4-Amino-9,10-dihydro-1,3-dihydroxy-9,10-dioxo-2-anthracenesulfonic acid, monosodium salt], the inhibition at 10 ppm is 20.4%.

Regarding `Cc1ccc(Nc2ccc(Nc3ccc(C)cc3S(=O)(=O)O)c3c2C(=O)c2ccccc2C3=O)c(S(=O)(=O)O)c1` [Acid green 25, 2,2'-[(9,10-Dihydro-9,10-dioxo-1,4-anthracenediyl)-diimino]bis[5-methylbenzenesulfonic acid],di Na salt], the inhibition at 10 ppm stood at 38.8%.

For `O=C1c2cccc(S(=O)(=O)O)c2C(=O)c2cccc([N+](=O)[O-])c21` [5-Nitroanthraquinone-1-sulfonic acid, 9,10-Dihydro-5-nitro-9,10-dioxo-1-anthracenesulfonic acid], the inhibition at 10 ppm was determined as 66%.

Turning to `O=C1c2ccccc2C(=O)c2ccccc21` [Anthraquinone], the inhibition at 10 ppm stood at 37.5%.

As to `O=C1c2ccccc2C(=O)c2c1ccc1ccccc21` [Benz[a]anthracene-7,12-dione], the inhibition at 30 ppm amounted to 52.9%.

As to `O=C1c2ccc3nc(-c4ccccc4)sc3c2C(=O)c2ccc3nc(-c4ccccc4)sc3c21` [Indanthrene yellow GCN, 2,8-Diphenyl-anthra[2,1-d:6,5-d']bisthiazole-6,12-dione], the inhibition at 10 ppm amounted to 15.6%.

Turning to `O=C1c2ccc(O)cc2C(=O)c2ccc(O)cc21` [2,6-Dihydroxyanthraquinone], the inhibition at 10 ppm worked out at 28.2%.

Consider `Cc1ccc(Nc2ccc(Nc3ccc(C)cc3)c3c2C(=O)c2cccc(O)c2C3=O)cc1` [Sudan green, 5-hydroxy-1,4-bis[(4-methylphenyl)amino]-9,10-anthracenedione], for which the inhibition at 30 ppm worked out at 0%.

`CC(C)(C)C(=O)Nc1ccc2c(c1)C(=O)c1ccccc1C2=O` [2-(2,2,2-Trimethylpropionamido)anthraquinone]: the inhibition at 30 ppm worked out at 48.1%.

On to `COc1cc(NS(=O)(=O)c2ccc(C)cc2)c2c(c1N)C(=O)c1ccccc1C2=O` [N-(4-Amino-9,10-dihydro-3-methoxy-9,10-dioxo-1-anthracenyl)-4-methylbenzenesulfonamide], for which the inhibition at 30 ppm was found to be 4.3%.

As for `O=C1c2cccc(O)c2C(=O)c2cccc(O)c21` [1,5-Dihydroxyanthraquinone], the inhibition at 10 ppm was determined as 31%.

As to `CCCCCNc1ccc(NCCCCC)c2c1C(=O)c1ccccc1C2=O` [Oil blue N, 1,4-Bis(pentylamino)-9,10-anthracenedione], the inhibition at 30 ppm amounted to 3.6%.

Regarding `CNc1ccc(NC)c2c1C(=O)c1ccccc1C2=O` [1,4-Bis(methylamino)-anthraquinone], the inhibition at 30 ppm came out at 8.6%.

Regarding `Cc1ccc(S(=O)(=O)Nc2cc(S(=O)(=O)O)c(N)c3c2C(=O)c2ccccc2C3=O)cc1` [1-Amino-9,10-dihydro-4[[(4-methylphenyl)sulfonyl]-amino]-9,10-dioxo-2-anthracenesulfonic acid, Na salt], the inhibition at 10 ppm amounted to 3.9%.

`Cc1cc(O)c2c(c1)C(=O)c1cc(O[C@@H]3OC[C@](O)(CO)[C@H]3O)cc(O)c1C2=O` [Frangulin B, 3-(D-apio-beta-D-Furanosyloxy)-1,8-dihydroxy-6-methyl-9,10-anthracenedione]: the inhibition at 30 ppm stood at 57.1%.

In the case of `N#[N+]c1cccc2c1C(=O)c1ccccc1C2=O` [1-Aminoanthraquinone diazonium salt], the inhibition at 30 ppm stood at 20.8%.

For `O=C1c2cccc(Cl)c2C(=O)c2c(Cl)cccc21` [1,8-Dichloroanthraquinone], the inhibition at 30 ppm is 3.9%.

On to `Nc1ccc(O)c2c1C(=O)c1c(O)ccc(N)c1C2=O` [1,5-Diamino-4,8-dihydroxyanthraquinone], for which the inhibition at 30 ppm came to 2.6%.

Regarding `O=C(O)CN(CC(=O)O)Cc1cc2c(c(O)c1O)C(=O)c1ccccc1C2=O` [Alizarin complexone dehydrate, (3,4-dihydroxy-2-anthraquinonyl)-methyliminodiacetic acid], the inhibition at 30 ppm was determined as 14.3%.

`Nc1c(Br)cc(Br)c2c1C(=O)c1ccccc1C2=O` [1-Amino-2,4-dibromoanthraquinone]: the inhibition at 10 ppm was 44.6%.

Take `CC(C)Nc1ccc(NC(C)C)c2c1C(=O)c1ccccc1C2=O` [1,4-Di(isopropylamino)anthraquinone, 1,4-Bis[(1-methylethyl)amino]-9,10-anthracenedione]: the inhibition at 30 ppm amounted to 5%.

For the compound `Cc1ccc2c(c1)C(=O)c1ccccc1C2=O` [2-Methylanthraquinone], the inhibition at 30 ppm is 10.4%.

As for `O=C(Nc1ccc(Nc2ccc(NC(=O)c3ccccc3)c3c2C(=O)c2ccccc2C3=O)c2c1C(=O)c1ccccc1C2=O)c1ccccc1` [4,4'-Dibenzamido-1,1'-dianthrimide, N,N'-[Iminobis(9,10-dihydro-9,10-dioxo-4,1-anthracenediyl)]bisbenzamide], the inhibition at 30 ppm is 5.2%.

Take `O=C1c2ccccc2C(=O)c2c1cccc2N(NS(=O)(=O)O)S(=O)(=O)O` [1-(9,10-Dihydro-9,10-dioxo-1-anthracenyl)-1,2-hydrazinedisulfonic acid, di Na salt]: the inhibition at 10 ppm amounted to 10%.

As to `O=C1c2ccc(O)c(O)c2C(=O)c2c(O)ccc(O)c21` [Quinalizarin, 1,2,5,8-Tetrahydroxyanthraquinone], the inhibition at 10 ppm amounted to 80%.

For `CCc1ccc2c(c1)C(=O)c1ccccc1C2=O` [2-Ethylanthraquinone], the inhibition at 10 µg/mL came out at 57.1%.

On to `O=C1c2ccccc2C(=O)c2cc(NC(=O)C3CC3)ccc21` [2-(Cyclopropylcarboxamido)anthraquinone], for which the inhibition at 30 ppm was determined as 2.6%.

As for `Nc1ccc2c(c1N)C(=O)c1ccccc1C2=O` [1,2-Diaminoanthraquinone], the inhibition at 10 ppm worked out at 28.9%.

`O=C1c2ccccc2C(=O)C2CC=CCC12` (stereo not drawn) [1,4,4a,9a-Tetrahydroanthraquinone]: the inhibition at 10 ppm fell in the range of 0 to 7%.

`Nc1c(S(=O)(=O)O)cc(Nc2ccc(S(=O)(=O)O)c(Nc3nc(Cl)nc(Cl)n3)c2)c2c1C(=O)c1ccccc1C2=O` [reactive blue 4]: the inhibition at 10 ppm worked out at 7.3%.

As for `COc1cccc2c1C(=O)c1c(O)c3c(c(O)c1C2=O)C[C@@](O)(C(=O)CO)C[C@@H]3O[C@H]1C[C@H](N)[C@H](O)[C@H](C)O1` [Adriamycin hydrochloride, 10-[(3-Amino-2,3,6-trideoxy-alpha-L-lyxo-hexopyranosyl)oxy]-7,8,9,10-tetrahydro-6,8,11-trihydroxy-8-(hydroxyacetyl)-1-methoxy-5,12-naphthacenedione hydrochloride, reference compound], the inhibition at 30 ppm stood at 55.7%.

For the compound `Nc1ccc(N)c2c1C(=O)c1c(N)ccc(N)c1C2=O` [Disperse blue 1, 1,4,5,8-Tetraaminoanthraquinone], the inhibition at 30 ppm came to 3.9%.

Take `NCCSc1cc(O)c2c(c1N)C(=O)c1ccccc1C2=O` [1-Amino-2-(2-aminoethylthio)-4-hydroxyanthraquinone]: the inhibition at 30 ppm was 24.7%.

For `O=C1c2ccc(S(=O)(=O)O)cc2C(=O)c2cc(S(=O)(=O)O)ccc21` [9,10-Dihydro-9,10-dioxo-2,7-anthracenedisulfonic acid, di Na salt], the inhibition at 30 ppm amounted to 9.1%.

With `Cc1cc(O)c2c(c1O)C(=O)c1cccc(O)c1C2=O` [Islandicin, 1,4,5-Trihydroxy-2-methyl-9,10-anthracenedione], the inhibition at 10 ppm is 50%.

On to `Cc1cc2c(cc1Br)C(=O)c1ccccc1C2=O` [2-Bromo-3-methylanthraquinone], for which the inhibition at 30 ppm is 26%.

Broadly, the inhibition is the change of the read-out against control, counted positive when it falls.
